Literature values, collected in PMC12285096, “Tirzepatide mitigates Stroke-Induced Blood-Brain barrier disruption by modulating Claudin-1 and C/EBP-α pathways” (Molecular Medicine, 2025).

Conditions: cited from earlier work; for BBB penetration (Kp, brain): limited BBB penetration of GLP-1 analogs, ref Rhea et al. [2024], Lee et al. [2023], Hunter and Hölscher [2012], Secher et al. [2014]

Substance	BBB penetration (Kp, brain)	Brain-to-plasma ratio (Kp, brain) (in vivo)
semaglutide	0.02–0.05	–
liraglutide	0.02–0.05	0.03 ± 0.01
